Measured values from patent US20010056085A1, “Methods of using vesicant drug formulations” (priority 1996, published 2001).
Several values for one entry are separate records, joined by “and”; a condition that tells them apart may be missing. Equal entries are not always repeated. Where two headings read alike, the source gives them in different places.

Test: Half-life of ADR destruction by UVA light in the presence of test compounds (decrease in absorbance at 480 nm)
Format: physicochemical
[1] = UVA light, 100 μM test compound with 0.5 μM riboflavin
[2] = UVA light, 100 μM test compound alone

Row | Structure (SMILES) | Half-Life of ADR Destruction, 100 μM Test Compound and 0.5 μM Riboflavin [1] | Half-Life of ADR Destruction, 100 μM Test Compound [2] | further results
1 | O=C(O)c1cc2ccccc2[nH]1 [Indole-2-carboxylic acid] | 9.12 min | – | –
2 | CNc1ccc(C(=O)O)cc1 [4-(Methylamino) Benzoic Acid] | 75.3 min | – | –
3 | O=C(c1ccccc1)c1cccs1 [2-Benzoylthiophene] | 8.85 min | 9.41 min | –
4 | O=C(O)CCc1c[nH]c2ccccc12 [Indole-3-propionic acid] | 9.5 ± 3.5 min | – | –
5 | Nc1ccc2c(O)cc(S(=O)(=O)O)cc2c1 [7-Amino-4-hydroxy-2-naphthalenesulfonic acid] | 30.1 min | – | –
6 | O=c1[nH]cnc2nc[nH]c12 [Hypoxanthine] | 43.0 min | – | –
7 | Cn1cc(C[C@H](N)C(=O)O)c2ccccc21 [1-Methyl-tryptophan] | 9.71 min | – | –
8 | O=S(=O)(O)c1cc(O)ccc1O [2,5-Dihydroxy Benzenesulfonic acid] | 25.1 min | – | –
9 | NCCc1ccc(O)c(O)c1 [3,4-Dihydroxy Phenethylamine (Dopamine), 3,4-Dihydroxy Phenethylamine] | 301.0 min | – | –
10 | COc1ccc2c(CC(=O)O)cc(=O)oc2c1 [7-Methoxycoumarin-4-acetic acid] | 11.6 min | 14.3 min | –
11 | Nc1ccc(C=CC(=O)O)cc1 [4-Amino Cinnamic Acid] | 16.7 min | 50.2 min | –
12 | COc1ccc2c(c1)c(CC(=O)OCC(=O)O)c(C)n2C(=O)c1ccc(Cl)cc1 [Acemetacin, {[1-(4-Chlorobenzoyl)-5-methoxy-2-methylindole-3-yl]acetoxy} acetic acid, reference compound] | 4.63 min | – | –
13 | COc1ccc2[nH]c3ccccc3c(=O)c2c1 [2-Methoxy-9(10H) Acridone] | – | – | Half-Life of ADR Destruction, 100 μM Test Compound: 23.2 min; Half-Life of ADR Destruction, 100 μM Test Compound and 0.5 μM Riboflavin: 16.7 min
14 | COc1ccc(C=CC=O)cc1 [4-Methoxy Cinnamaldehyde] | 50.2 min | – | –
15 | CCC(C)c1ccccc1N (centres unmarked) [2-sec-Butyl Aniline] | 10.4 min | – | –
16 | O=C(O)CSc1ccc2ccccc2c1 [2-(2-naphthylthio) Acetic acid] | 8.14 min | 9.41 min | –
17 | Cc1ccc(N)cc1CO [3-Amino-6-Methyl Benzyl Alcohol] | 16.7 min | – | –
18 | Cc1cccc(CO)c1N [2-Amino-3-Methyl Benzyl Alcohol] | 18.8 min | – | –
19 | COc1ccc2[nH]c(C)c(CC(=O)O)c2c1 [5-Methoxy-2-methylindole-3-acetic acid] | 4.78 min | 25.1 min | –
20 | CCc1ccc[nH]1 [2-Ethyl Pyrrole] | 10.0 min | – | –
21 | OCC=Cc1ccccc1 [Cinnamyl Alcohol] | – | 43.0 min | –

Row | Structure (SMILES) | Half-Life of ADR Destruction, 100 μM Test Compound and 0.5 μM Riboflavin [1] | Half-Life of ADR Destruction, 100 μM Test Compound [2] | further results
22 | O=C1CC(c2ccccc2)Oc2ccccc21 (centres unmarked) [2-Phenylchromanone (Flavanone), 2-Phenylchromanone] | 50.2 min | – | –
23 | C[S+](C)[O-] [Dimethylsulfoxide] | – | – | Half-Life of ADR Destruction, Test Compound (UVA light, dimethylsulfoxide 4% = 0.56 M alone): 33.5 min; Half-Life of ADR Destruction, Test Compound and 0.5 μM Riboflavin (UVA light, dimethylsulfoxide 4% = 0.56 M with 0.5 μM riboflavin): 27.4 min; Half-Life of ADR Destruction, Test Compound and 0.5 μM Riboflavin (UVA light, dimethylsulfoxide 40% - 5.6 M with 0.5 μM riboflavin): 10.4 min
24 | Cc1ccc(C(=O)O)cc1N [3-Amino-4-Methyl Benzoic Acid] | 13.7 min | – | –
25 | O=C(O)c1ccccc1C(=O)c1ccccc1 [2-Benzophenone-carboxylic acid] | – | – | Half-Life of ADR Destruction, 100 μM Test Compound: 50.2 min
26 | Oc1ccc2c(c1)[nH]c1ccccc12 [2-Hydroxy Carbazole] | – | – | Half-Life of ADR Destruction, 100 μM Test Compound and 0.5 μM Riboflavin (UVA light, with 0.5 μM riboflavin, +4% DMSO): 75.3 ± 35.4 min
27 | COc1cc2ccc(=O)oc2cc1OC [6,7-Dimethoxycoumarin] | – | 21.5 min | –
28 | O=C(O)c1cccc2c1C(=O)c1ccccc1-2 [9-Fluorenone-1-carboxylic acid] | 43.0 min | 43.0 min | –
29 | Nc1ccc(N)c(S(=O)(=O)O)c1 [2,5-Diamino Benzene sulfonic acid] | 27.4 min | – | –
30 | O=C(c1ccccc1)c1ccncc1 [4-Benzoylpyridine] | 11.6 min | 17.2 ± 1.9 min | –
31 | O=C(O)c1ccc(C(=O)c2ccccc2)cc1 [4-Benzophenone-carboxylic acid] | – | – | Half-Life of ADR Destruction, 100 μM Test Compound: 10.0 min; Half-Life of ADR Destruction, 100 μM Test Compound and 0.5 μM Riboflavin: 7.72 min
32 | COc1ccc(C=CCO)cc1 [4-Methoxy Cinnamyl Alcohol] | 9.12 min | 50.2 min | –
33 | Nc1cccc2cc(S(=O)(=O)O)ccc12 [5-Amino-2-naphthalenesulfonic acid] | – | 50.2 min | –
34 | CC(=O)c1ccc(O)cc1 [4′-Hydroxyacetophenone] | 50.2 min | 50.2 min | –
35 | Cn1ccc2ccccc21 [1-methyl Indole] | 33.5 min | – | –
36 | Cc1c(N)cccc1C(=O)O [3-Amino-2-Methyl Benzoic Acid] | 23.2 min | – | –
37 | O=C(O)CCCc1c[nH]c2ccccc12 [3-Indolebutyric acid] | 10.0 min | – | –
38 | Cc1cc2nc3[nH]c(=O)[nH]c(=O)c3nc2cc1C [Lumichrome] | – | – | Half-Life of ADR Destruction, 100 μM Test Compound: 6.02 min; Half-Life of ADR Destruction, 100 μM Test Compound and 0.5 μM Riboflavin: 3.86 min
39 | Nc1ccc(CO)cc1 [4-Amino Benzyl Alcohol] | 27.4 min | – | –
40 | COc1ccc(CCCO)cc1OC [3-(3,4-Dimethoxyphenyl)-1-Propanol] | 4.78 min | 43.0 min | –
41 | O=S(=O)(c1ccc(O)cc1)c1ccc(O)cc1 [4,4-Dihydroxy Phenylsulfone] | 43.0 min | 43.0 min | –
42 | O=C(c1ccccc1)c1ccccn1 [2-Benzoylpyridine] | 100.3 min | 100.3 min | –

Row | Structure (SMILES) | Half-Life of ADR Destruction, 100 μM Test Compound and 0.5 μM Riboflavin [1] | Half-Life of ADR Destruction, 100 μM Test Compound [2] | further results
43 | c1ccc2c(c1)CCc1ccccc1N2 [Iminodibenzyl] | 23.2 min | – | –
44 | Nc1ccc(C(=O)O)cc1 [4-Amino Benzoic Acid] | 20.6 ± 9.7 min | – | –
45 | N[C@@H](CSSC[C@H](N)C(=O)O)C(=O)O [Cystine] | 150.5 min | – | –
46 | CCc1c(C)c[nH]c1C [2,4-Dimethyl-3-ethyl Pyrrole] | 20.1 min | – | –
47 | Nc1ccc2[nH]ccc2c1 [5-Amino Indole] | 100.3 min | – | –
48 | Cc1c[nH]c(C)c1 [2,4-Dimethyl Pyrrole] | 20.1 min | – | –
49 | Nc1nc2c(ncn2[C@@H]2O[C@H](CO)[C@@H](O)[C@H]2O)c(=O)[nH]1 [Guanosine] | 14.3 min | 75.3 min | –
50 | O=C(O)/C=C/c1ccccc1 [trans-Cinnamic Acid] | – | 43.0 min | –
51 | Nc1cc(C(=O)O)ccc1O [3-Amino-4-Hydroxy Benzoic Acid] | 75.3 min | – | –
52 | O=C(O)CCC(=O)c1ccc(-c2ccccc2)cc1 [Fenbufen, reference compound] | 12.0 min | 12.5 min | –
53 | O=c1c2ccccc2oc2ncccc12 [1-Azaxanthrone] | 2.60 min | 2.87 min | –
54 | O=C(/C=C/c1ccc(O)c(O)c1)O[C@@H]1C[C@](O)(C(=O)O)C[C@@H](O)[C@H]1O [3-Caffeolyquinic Acid] | 100.3 min | 100.3 min | –
55 | COc1ccc(O)cc1 [4-Methoxy Phenol] | 43.0 min | 50.2 min | –
56 | O=S(=O)=C1C=CC=C(S(=O)(=O)O)C1 [3-Sulfonyl-benzenesulfonic acid] | 50.2 min | – | –
57 | CC(=O)c1cccc(O)c1 [3′-Hydroxyacetophenone] | – | 75.3 min | –
58 | O=C(O)Cc1ccc(-c2ccccc2)cc1 [4-Phenyl Phenylacetic Acid] | 27.4 min | 43.0 min | –
59 | O=c1c2ccccc2oc2ccccc12 [Xanthrone] | 6.84 min | 5.47 min | –
60 | O=C1c2ccc(S(=O)(=O)O)cc2C(=O)c2ccc(S(=O)(=O)O)cc21 [Anthraquinone-2,6-disulfonic acid] | 0.283 min | 0.275 min | –
61 | Oc1ccc2[nH]ccc2c1 [5-Hydroxy Indole] | 150.5 min and 75.3 min | – | –
